Data published in ChEMBL document CHEMBL6078643, “Palladium-Mediated Bioorthogonal System for Prodrug Activation of N-Benzylbenzamide-Containing Tubulin Polymerization Inhibitors for the Treatment of Solid Tumors” (J Med Chem, 2024).
Active and inactive are the calls of the source. The rule behind the calls is not given here.

Columns and labels:
[1] = Prodrug release in PBS buffer assessed as half release time of 4-(((4-((4-methoxyphenyl)(methyl)amino)quinazolin-2-yl)amino)methyl)phenol in presence of palladium resins at 75 uM by HPLC analysis; type: ADME
[2] = Antiproliferative activity against human THLE-2 cells assessed as reduction in cell viability incubated for 72 hrs by CCK-8 assay; type: toxicity, cell-based
H22 [3] = test: Select factor, ratio of test compound IC50 to 4-(((4-((4-methoxyphenyl)(methyl)amino)quinazolin-2-yl)amino)methyl)phenol IC50 for antiproliferative activity against mouse H22 cells assessed as reduction in cell viability incubated for 72 hrs by CCK-8 assay; type: functional
[4] = Select factor, ratio of test compound IC50 to 4-(((4-((4-methoxyphenyl)(methyl)amino)quinazolin-2-yl)amino)methyl)phenol IC50 for antiproliferative activity against human THLE-2 cells assessed as reduction in cell viability incubated for 72 hrs by CCK-8 assay; type: toxicity, cell-based; conditions: read-out: Ratio IC50
H22 [5] = test: Antiproliferative activity against mouse H22 cells assessed as reduction in cell viability incubated for 72 hrs by CCK-8 assay; type: functional, cell-based; conditions: H22, 72 h
K562 [6] = test: Select factor, ratio of test compound IC50 to 4-(((4-((4-methoxyphenyl)(methyl)amino)quinazolin-2-yl)amino)methyl)phenol IC50 for antiproliferative activity against human K562 cells assessed as reduction in cell viability incubated for 72 hrs by CCK-8 assay; type: functional
HepG2 [7] = test: Select factor, ratio of test compound IC50 to 4-(((4-((4-methoxyphenyl)(methyl)amino)quinazolin-2-yl)amino)methyl)phenol IC50 for antiproliferative activity against human HepG2 cells assessed as reduction in cell viability incubated for 72 hrs by CCK-8 assay; type: functional
HepG2 [8] = test: Antiproliferative activity against human HepG2 cells assessed as reduction in cell viability incubated for 72 hrs by CCK-8 assay; type: functional, cell-based; conditions: HepG2, 72 h
K562 [9] = test: Antiproliferative activity against human K562 cells assessed as reduction in cell viability incubated for 72 hrs by CCK-8 assay; type: functional, cell-based; conditions: K562, 72 h
H22 [10] = test: Select factor, ratio of test compound IC50 to 5-fluoro-N-(3-hydroxy-4-methoxybenzyl)-2-morpholinobenzamide IC50 for antiproliferative activity against mouse H22 cells assessed as reduction in cell viability incubated for 72 hrs by CCK-8 assay; type: functional
K562 [11] = test: Select factor, ratio of test compound IC50 to 5-fluoro-N-(3-hydroxy-4-methoxybenzyl)-2-morpholinobenzamide IC50 for antiproliferative activity against human K562 cells assessed as reduction in cell viability incubated for 72 hrs by CCK-8 assay; type: functional
[12] = Select factor, ratio of test compound IC50 to 5-fluoro-N-(3-hydroxy-4-methoxybenzyl)-2-morpholinobenzamide IC50 for antiproliferative activity against human THLE-2 cells assessed as reduction in cell viability incubated for 72 hrs by CCK-8 assay; type: toxicity, cell-based; conditions: read-out: Ratio IC50
HepG2 [13] = test: Select factor, ratio of test compound IC50 to 5-fluoro-N-(3-hydroxy-4-methoxybenzyl)-2-morpholinobenzamide IC50 for antiproliferative activity against human HepG2 cells assessed as reduction in cell viability incubated for 72 hrs by CCK-8 assay; type: functional
[14] = Prodrug release in PBS buffer assessed as half release time of 5-fluoro-N-(3-hydroxy-4-methoxybenzyl)-2-morpholinobenzamide in presence of palladium resins at 75 uM by HPLC analysis; type: ADME
K562 [15] = test: Induction of cell cycle arrest in human K562 cells assessed as accumulation of cells at G1 phase at 20 nM incubated for 72 hrs by PI staining based flow cytometric analysis ( Rvb = 77.46 %); type: functional
K562 [16] = test: Induction of apoptosis in human K562 cells assessed as viable cells at 20 nM incubated for 72 hrs by Annexin V-APC staining based flow cytometric analysis (reference value: 94.21%); type: functional; conditions: read-out: Activity
K562 [17] = test: Antiproliferative activity against human K562 cells at 100 nM incubated for 72 hrs in presence of palladium resins by CCK-8 assay; type: functional, cell-based
Tubulin (Homo sapiens) [18] = target: T1, Tubulin (Homo sapiens) (UniProt P68371+Q9H4B7+P0DPH7+P68366+Q13509+Q71U36+P04350+Q3ZCM7+P07437+P68363+Q9BQE3+Q6PEY2+Q13885+Q9BVA1+Q9BUF5); test: Inhibition of tubulin polymerization in human K562 cells assessed as decrease in beta tubulin expression at 16 nM incubated for 24 hrs by Western blotting analysis; type: cell-based
K562 [19] = test: Induction of apoptosis in human K562 cells assessed as late apoptotic cells at 20 nM incubated for 72 hrs by Annexin V-APC staining based flow cytometric analysis (reference value: 1.36%); type: functional
K562 [20] = test: Induction of apoptosis in human K562 cells assessed as early apoptotic cells at 20 nM incubated for 72 hrs by Annexin V-APC staining based flow cytometric analysis (reference value: 2.78%); type: functional
Tubulin (Homo sapiens) [21] = target: T1, Tubulin (Homo sapiens); test: Inhibition of tubulin polymerization in human K562 cells assessed as decrease in alpha tubulin expression at 16 nM incubated for 24 hrs by Western blotting analysis; type: cell-based
K562 [22] = test: Induction of cell cycle arrest in human K562 cells assessed as accumulation of cells at G2 phase at 20 nM incubated for 72 hrs by PI staining based flow cytometric analysis ( Rvb = 8.5 %); type: functional
Tubulin (Homo sapiens) [23] = target: T1, Tubulin (Homo sapiens); test: Disruption of microtubule organization in human K562 cells at 20 nM incubated for 72 hrs by DAPI staining based confocal microscopic analysis; type: cell-based
HepG2 [24] = test: Antiproliferative activity against human HepG2 cells at 100 nM incubated for 72 hrs in presence of palladium resins by CCK-8 assay; type: functional, cell-based
Tubulin (Homo sapiens) [25] = target: T1, Tubulin (Homo sapiens); test: Inhibition of tubulin polymerization in human HepG2 cells assessed as decrease in polymerized alpha tubulin level at 19 nM incubated for 24 hrs by Western blotting analysis; type: cell-based
Tubulin (Homo sapiens) [26] = target: T1, Tubulin (Homo sapiens); test: In vivo inhibition of tubulin polymerization in human HepG2 cells xenografted in Balb/c mouse assessed as decrease in alpha tubulin expression at 20 mg/kg, iv administered daily for 14 days incubated for 24 hrs by Western blot analysis; type: functional, organism-based; conditions: time 14.0 day
[27] = target: Bcr/Abl fusion protein (Homo sapiens) (UniProt P00519+P11274); test: Inhibition of Bcr-Abl in human K562 cells at 16 nM incubated for 24 hrs by Western blotting analysis; type: cell-based
K562 [28] = test: Induction of apoptosis in human K562 cells assessed as necrotic cells at 20 nM incubated for 72 hrs by Annexin V-APC staining based flow cytometric analysis (reference value: 1.65%); type: functional
Tubulin (Homo sapiens) [29] = target: T1, Tubulin (Homo sapiens); test: Inhibition of tubulin polymerization in human HepG2 cells assessed as decrease in beta tubulin expression at 19 nM incubated for 24 hrs by Western blotting analysis; type: cell-based
K562 [30] = test: Induction of cell cycle arrest in human K562 cells assessed as accumulation of cells at S phase at 20 nM incubated for 72 hrs by PI staining based flow cytometric analysis ( Rvb = 14.04 %); type: functional
Tubulin (Homo sapiens) [31] = target: T1, Tubulin (Homo sapiens); test: Inhibition of tubulin polymerization in human K562 cells assessed as decrease in polymerized alpha tubulin level at 16 nM incubated for 24 hrs by Western blotting analysis; type: cell-based
HepG2 [32] = test: Antitumor activity against human HepG2 cells xenografted in Balb/c mouse assessed as cell necrosis at 20 mg/kg, iv administered daily for 14 days by H and E staining based analysis; type: functional, organism-based; conditions: time 14.0 day
Tubulin (Homo sapiens) [33] = target: T1, Tubulin (Homo sapiens); test: Inhibition of tubulin polymerization in human HepG2 cells assessed as decrease in alpha tubulin expression at 19 nM incubated for 24 hrs by Western blotting analysis; type: cell-based
Tubulin (Homo sapiens) [34] = target: T1, Tubulin (Homo sapiens); test: In vivo inhibition of tubulin polymerization in human HepG2 cells xenografted in Balb/c mouse assessed as decrease in beta tubulin expression at 20 mg/kg, iv administered daily for 14 days incubated for 24 hrs by Western blot analysis; type: functional, organism-based; conditions: time 14.0 day
HepG2 [35] = test: Antitumor activity against human HepG2 cells xenografted in Balb/c mouse assessed as tumor growth inhibition at 20 mg/kg, iv administered daily for 14 days relative to control; type: functional; conditions: HepG2, 336 h, time 14 day, read-out: TGI
HepG2 [36] = test: Antitumor activity against human HepG2 cells xenografted in Balb/c mouse assessed as cell necrosis at 20 mg/kg, iv administered daily for 14 days by TUNEL staining based analysis; type: functional, organism-based; conditions: time 14.0 day

Sequence of Bcr/Abl fusion protein (Homo sapiens) (P00519 whole entry, looked up, the tested form may be a part): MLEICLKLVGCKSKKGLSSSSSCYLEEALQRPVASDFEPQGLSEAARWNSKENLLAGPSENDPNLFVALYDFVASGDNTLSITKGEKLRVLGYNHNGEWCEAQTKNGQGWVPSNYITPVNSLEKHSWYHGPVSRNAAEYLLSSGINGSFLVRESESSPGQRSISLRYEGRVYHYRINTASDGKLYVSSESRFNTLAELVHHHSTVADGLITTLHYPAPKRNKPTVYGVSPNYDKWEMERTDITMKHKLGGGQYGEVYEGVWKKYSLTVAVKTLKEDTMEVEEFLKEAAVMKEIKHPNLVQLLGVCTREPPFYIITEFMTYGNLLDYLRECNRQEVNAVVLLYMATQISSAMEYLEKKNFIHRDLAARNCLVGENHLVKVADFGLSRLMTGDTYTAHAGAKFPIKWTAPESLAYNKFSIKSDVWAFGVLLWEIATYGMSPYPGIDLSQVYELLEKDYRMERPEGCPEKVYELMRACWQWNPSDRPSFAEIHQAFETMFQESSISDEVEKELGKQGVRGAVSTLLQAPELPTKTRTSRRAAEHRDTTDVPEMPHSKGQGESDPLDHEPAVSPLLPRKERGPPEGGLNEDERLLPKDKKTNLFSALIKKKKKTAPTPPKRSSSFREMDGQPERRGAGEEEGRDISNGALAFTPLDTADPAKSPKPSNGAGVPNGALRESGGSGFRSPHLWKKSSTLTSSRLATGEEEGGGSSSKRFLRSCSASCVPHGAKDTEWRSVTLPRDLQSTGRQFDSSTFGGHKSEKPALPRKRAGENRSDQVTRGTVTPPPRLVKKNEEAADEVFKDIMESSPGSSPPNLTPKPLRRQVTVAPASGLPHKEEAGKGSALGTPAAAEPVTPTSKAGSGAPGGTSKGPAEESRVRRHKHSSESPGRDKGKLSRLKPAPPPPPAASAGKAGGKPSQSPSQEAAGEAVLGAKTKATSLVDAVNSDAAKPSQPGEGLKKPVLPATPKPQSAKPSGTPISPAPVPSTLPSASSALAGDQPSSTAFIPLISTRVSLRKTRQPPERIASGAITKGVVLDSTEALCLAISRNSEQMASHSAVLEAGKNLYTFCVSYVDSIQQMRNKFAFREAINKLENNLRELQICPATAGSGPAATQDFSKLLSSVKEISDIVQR
Sequence of Bcr/Abl fusion protein (Homo sapiens) (P11274 whole entry, looked up, the tested form may be a part): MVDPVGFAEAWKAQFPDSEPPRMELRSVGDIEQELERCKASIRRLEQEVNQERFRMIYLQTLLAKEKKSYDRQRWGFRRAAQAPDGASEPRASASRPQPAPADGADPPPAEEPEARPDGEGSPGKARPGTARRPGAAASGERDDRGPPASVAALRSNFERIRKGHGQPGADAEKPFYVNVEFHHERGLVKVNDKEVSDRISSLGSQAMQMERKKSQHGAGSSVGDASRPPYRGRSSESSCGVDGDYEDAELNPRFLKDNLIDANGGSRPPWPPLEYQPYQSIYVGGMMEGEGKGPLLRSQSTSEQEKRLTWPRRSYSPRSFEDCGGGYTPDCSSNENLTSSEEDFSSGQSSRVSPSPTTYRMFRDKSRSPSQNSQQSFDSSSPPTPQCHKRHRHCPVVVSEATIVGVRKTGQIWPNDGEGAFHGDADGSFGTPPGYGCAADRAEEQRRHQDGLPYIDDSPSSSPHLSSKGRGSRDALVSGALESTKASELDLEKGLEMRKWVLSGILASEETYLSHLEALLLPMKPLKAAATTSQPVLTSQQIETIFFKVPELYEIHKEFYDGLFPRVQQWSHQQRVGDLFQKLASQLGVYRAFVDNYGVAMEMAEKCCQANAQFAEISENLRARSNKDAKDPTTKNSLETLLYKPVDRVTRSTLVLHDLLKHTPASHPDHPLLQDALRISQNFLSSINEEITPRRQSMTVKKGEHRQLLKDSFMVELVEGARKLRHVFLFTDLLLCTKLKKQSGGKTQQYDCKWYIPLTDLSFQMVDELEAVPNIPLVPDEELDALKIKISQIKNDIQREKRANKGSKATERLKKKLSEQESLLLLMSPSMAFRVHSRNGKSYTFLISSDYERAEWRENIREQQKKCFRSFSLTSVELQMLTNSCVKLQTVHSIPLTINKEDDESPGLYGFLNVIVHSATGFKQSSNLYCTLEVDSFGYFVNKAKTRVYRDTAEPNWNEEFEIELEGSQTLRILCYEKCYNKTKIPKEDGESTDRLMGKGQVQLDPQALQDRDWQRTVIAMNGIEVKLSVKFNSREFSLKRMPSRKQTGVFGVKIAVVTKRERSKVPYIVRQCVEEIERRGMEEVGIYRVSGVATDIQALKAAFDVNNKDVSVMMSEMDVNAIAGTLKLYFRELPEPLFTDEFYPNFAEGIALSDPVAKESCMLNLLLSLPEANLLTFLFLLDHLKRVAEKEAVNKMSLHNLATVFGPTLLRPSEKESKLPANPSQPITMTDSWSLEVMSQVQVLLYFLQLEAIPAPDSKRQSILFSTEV

C#CC(C)(C)Oc1ccc(CNc2nc(N(C)c3ccc(OC)cc3)c3ccccc3n2)cc1
t1/2 [1]: 5.8 h | IC50 at 72 h [2]: 516 nM | Ratio IC50 (H22 [3]): 24.5 | selectivity ratio at 72 h [4]: 11.4 | IC50 (H22 [5]): 473 nM | Ratio IC50 (K562 [6]): 26 | Ratio IC50 (HepG2 [7]): 34.1 | IC50 (HepG2 [8]): 491 nM | IC50 (K562 [9]): 508 nM

C=CCOc1ccc(CNc2nc(N(C)c3ccc(OC)cc3)c3ccccc3n2)cc1
t1/2 [1]: > 24 h | IC50 at 72 h [2]: 353 nM | Ratio IC50 (H22 [3]): 14.8 | selectivity ratio at 72 h [4]: 7.8 | IC50 (H22 [5]): 285 nM | Ratio IC50 (K562 [6]): 25.7 | Ratio IC50 (HepG2 [7]): 27.9 | IC50 (HepG2 [8]): 402 nM | IC50 (K562 [9]): 502 nM

C=CCOc1cc(CNC(=O)c2cc(F)ccc2N2CCOCC2)ccc1OC
IC50 at 72 h [2]: 5470 nM | Ratio IC50 (H22 [10]): 13.9 | IC50 (H22 [5]): 282 nM | Ratio IC50 (K562 [11]): 248.8 | IC50 (HepG2 [8]): 541 nM | selectivity ratio at 72 h [12]: 25.6 | Ratio IC50 (HepG2 [13]): 28.2 | IC50 (K562 [9]): 3980 nM | t1/2 [14]: > 24 h

C#CC(C)(C)Oc1cc(CNC(=O)c2cc(F)ccc2N2CCOCC2)ccc1OC
IC50 at 72 h [2]: 1330 nM | Ratio IC50 (H22 [10]): 21.9 | IC50 (H22 [5]): 444 nM | Ratio IC50 (K562 [11]): 28.7 | IC50 (HepG2 [8]): 1110 nM | selectivity ratio at 72 h [12]: 62.2 | Ratio IC50 (HepG2 [13]): 57.8 | IC50 (K562 [9]): 460 nM | t1/2 [14]: 14.5 h

COc1ccc(CNC(=O)c2cc(F)ccc2N2CCOCC2)cc1O
Activity (K562 [15]): 45.95% | viability at 0.02 µM (K562 [16]): 15.2% | Activity (K562 [17]): Active | IC50 at 72 h [2]: 21.4 nM | inhibition (Tubulin (Homo sapiens) [18]): Active | Activity (K562 [19]): 59.77% | Activity (K562 [20]): 20.68% | inhibition (Tubulin (Homo sapiens) [21]): Active | Activity (K562 [22]): 21.32% | Activity (Tubulin (Homo sapiens) [23]): Active | Activity (HepG2 [24]): Active | inhibition (Tubulin (Homo sapiens) [25]): Active | Activity (Tubulin (Homo sapiens) [26]): Active | IC50 (H22 [5]): 20.3 nM | inhibition [27]: Active | Activity (K562 [28]): 4.31% | inhibition (Tubulin (Homo sapiens) [29]): Active | Activity (K562 [30]): 32.73% | inhibition (Tubulin (Homo sapiens) [31]): Active | Activity (HepG2 [32]): Active | inhibition (Tubulin (Homo sapiens) [33]): Active | Activity (Tubulin (Homo sapiens) [34]): Active | inhibition in vivo at 20 mg/kg (HepG2 [35]): 49.6% | IC50 (HepG2 [8]): 19.2 nM | IC50 (K562 [9]): 16 nM | Activity (HepG2 [36]): Active

C#CCOc1ccc(CNc2nc(N(C)c3ccc(OC)cc3)c3ccccc3n2)cc1
t1/2 [1]: 4.2 h | IC50 at 72 h [2]: 703 nM | Ratio IC50 (H22 [3]): 11.8 | selectivity ratio at 72 h [4]: 15.5 | IC50 (H22 [5]): 229 nM | Ratio IC50 (K562 [6]): 24.1 | Ratio IC50 (HepG2 [7]): 63.5 | IC50 (HepG2 [8]): 914 nM | IC50 (K562 [9]): 470 nM

COc1ccc(N(C)c2nc(NCc3ccc(O)cc3)nc3ccccc23)cc1
IC50 at 72 h [2]: 45.4 nM | IC50 (H22 [5]): 19.3 nM | IC50 (HepG2 [8]): 14.4 nM | IC50 (K562 [9]): 19.5 nM
